The test system of this data set is stationary phase B. burgdorferi. Kind of data set: SYBR Green I/PI viability assay (drug library screen, plate reader). The conditions noted are these: for viability at 50 µM: Borreliella burgdorferi, 168 h; for activity against stationary phase B. burgdorferi (in words): screen at 50 μM. The method, then:
Borrelia burgdorferi strain B31 (ATCC35210) was received from the […] (Manassas, Va., USA) and was grown in BSK-H medium (HiMedia Laboratories, Mumbai, India) and 6% rabbit serum (Sigma Aldrich, St. Louis, Mo., USA). The culture was filtered and sterilized using a […] and incubated in capped sterile 50 mL conical tubes (BD Biosciences, CA, USA) at 33° C. for 7 days without antibiotics until the culture reached stationary phase.
The cultures were examined using a Nikon Eclipse E800 microscope with differential interference contrast and epifluorescent illumination. The pictures were captured using a SPOT slider color camera. A SYBR Green I/PI assay was used to assess the viability of the bacterial sample using the ratio of live to dead B. burgdorferi (measured with green and red fluorescence, respectively) as measured by a plate reader.
Briefly, prediluted drug stock (10 μL) was added to 7 day old stationary phase B. burgdorferi culture (90 μL) to achieve a 50 μM final drug concentration per well. The plates were then incubated at 33° C. for 7 days at which point the SYBR/PI rapid viability assay was performed in a fluorescence plate reader to obtain the green-red fluorescence ratio.

Where [1] appears, read: read-out: Residual viable cells (SYBR/PI), Table 3, drugs 50 μM, 7-day old stationary phase cells treated for 7 days.
[2] abbreviates: read-out: Residual viable cells (SYBR Green/PI), Table 1, drugs 50 μM, 7 day old stationary phase cells treated for 7 days.
The mark [3] stands for this setting: read-out: Residual viable cells (SYBR/PI).
The mark [4] stands for this setting: Table 3, drugs 50 μM, 7-day old stationary phase cells treated for 7 days.

Counter-ions that a name gives are not always drawn. Like-named read-outs stand apart in the source and are kept apart here.

Consider `CN1CCN(c2c(F)cc3c(=O)c(C(=O)O)cn(CCF)c3c2F)CC1` [Fleroxacin], for which the viability at 50 µM under setting [1] is 73%. As to `NC12CC3CC(CC(C3)C1)C2` [Amantadine hydrochloride], the “Residual viable cells (SYBR/PI)” value (Borrelia burgdorferi, 7 days, 50 μM) is 69%. The viability at 50 µM under setting [1] is 65%. With `O=C(Nc1ccc(C(=O)O)c(O)c1)c1ccccc1` [Benzoylpas, 4-Benzamido salicylic acid, calcium salt], the viability at 50 µM stood at 55% under setting [2] and 55% under setting [1]. For `CCCCCl` [Butyl chloride (1-Chlorobutane), 1-Chlorobutane], the viability at 50 µM under setting [3] came to 41%. In addition, the “activity against stationary phase B. burgdorferi (in words)” value (shortened to “activity”) (7 days) was “very high activities”. Turning to `Clc1ccc(CO/N=C(\Cn2ccnc2)c2ccc(Cl)cc2Cl)c(Cl)c1` [Oxiconazole nitrate], the viability at 50 µM runs as follows: under setting [2], 62%; under setting [1], 62%. For `Cc1cc(C2CCCCC2)n(O)c(=O)c1` [Ciclopirox olamine], the viability at 50 µM under setting [1] amounted to 66%. For the molecule `Nc1ccc(S(=O)(=O)Nc2ccc(Cl)nn2)cc1` [Sulfachlorpyridazine], the viability at 50 µM under setting [3] is 58%.

On to `NC(=O)c1ncn([C@@H]2O[C@H](CO)[C@@H](O)[C@H]2O)n1` [Ribavirin], for which the viability at 50 µM worked out at 63% under setting [2] and 63% under setting [1].

For the molecule `N#CCC(=O)NN` [Cyacetacide], the viability at 50 µM reads like this: under setting [2], 61%; under setting [1], 61%.

`O=C(Cn1ccnc1[N+](=O)[O-])NCc1ccccc1` [Benznidazole]: the viability at 50 µM under setting [1] is 53%. Same read-out and setting: in the case of `C[C@H]1[C@H](OC(=O)CCC(=O)O)O[C@@H]2O[C@@]3(C)CC[C@H]4[C@H](C)CC[C@@H]1[C@@]24OO3` [Artesunate] it was 58%; in that of `Cc1nc(C)c(Cl)c(O)c1Cl` [Clopidol], 57%. On the same count and under the same terms, in the case of `C=N[C@@H](C(=O)N[C@@H]1C(=O)N2[C@@H]1SC(C)(C)[C@@H]2C(=O)O)c1ccccc1` [Metampicillin] it was 57%.

Regarding `S=C=Nc1ccc(N=C=S)cc1` [Bitoscanate], the viability at 50 µM reads like this: (read-out: Residual viable cells (SYBR Green/PI)) 46%; under setting [3], 46%. Turning to `N#CC(c1ccc(Cl)cc1)c1c(Cl)cc(-n2ncc(=O)[nH]c2=O)cc1Cl` (centres unmarked) [Diclazuril], the viability at 50 µM under setting [1] stood at 63%. The same measure, in the same setting: then `CC(=O)OCC(CCn1cnc2cnc(N)nc21)COC(C)=O` [Famciclovir], with 68%; and `CCC(=O)O[C@@H]1CC(=O)O[C@H](C)C/C=C/C=C/[C@H](O)[C@H](C)C[C@H](CC=O)[C@H](O[C@@H]2O[C@H](C)[C@@H](O[C@H]3C[C@@](C)(O)[C@@H](OC(=O)CC)[C@H](C)O3)[C@H](N(C)C)[C@H]2O)[C@H]1OC` [Midecamycin], with 54%; and `O=C1Nc2ccc(Cl)cc2[C@@](C#CC2CC2)(C(F)(F)F)O1` [Efavirenz], with 60%. On to `CC(=O)OCC1=C(C(=O)O)N2C(=O)[C@@H](NC(=O)CCC[C@@H](N)C(=O)O)[C@H]2SC1` [Cephalosporin C], for which the “Residual viable cells (SYBR/PI)” value under setting [4] is given as 58%. As for `CO[C@H]1/C=C/O[C@@]2(C)Oc3c(C)c(O)c4c(O)c(c5c(nc6cc(C)ccn65)c4c3C2=O)NC(=O)/C(C)=C\C=C\[C@H](C)[C@H](O)[C@@H](C)[C@@H](O)[C@@H](C)[C@H](OC(C)=O)[C@@H]1C` [Rifaximin], the viability at 50 µM under setting [1] came out at 51%. With `Nc1ccc(C(=O)O)c(O)c1` [4-Aminosalicylic acid], the viability at 50 µM under setting [3] turned out to be 66%. Regarding `COC(=O)Nc1nc2cc(C(=O)c3ccc(F)cc3)ccc2[nH]1` [Flubendazole], the viability at 50 µM worked out at 54% under setting [2] and 54% under setting [1]. For the molecule `NC(=O)c1cc[n+](CC2=C(C(=O)O)N3C(=O)[C@@H](NC(=O)[C@@H](c4ccccc4)S(=O)(=O)[O-])[C@H]3SC2)cc1` [Cefsulodin], the viability at 50 µM under setting [2] was 60% and the viability at 50 µM under setting [1] is 60%. Regarding `COP(=O)(OC)C(O)C(Cl)(Cl)Cl` (centres unmarked) [Metrifonate], under setting [3], the viability at 50 µM was 51%.

For `O=c1[nH]c(=O)n([C@H]2C[C@H](O)[C@@H](CO)O2)cc1F` [Floxuridine, 5-fluorodeoxyuridine], the viability at 50 µM by setting is: under setting [2], 61%; under setting [1], 61%. Turning to `Clc1ccccc1C(c1ccccc1)(c1ccccc1)n1ccnc1` [Clotrimazole], under setting [1], the viability at 50 µM was 68%. For `COc1ccc(C[C@H]2NC[C@H](O)[C@H]2OC(C)=O)cc1` [Anisomycin], the “Residual viable cells (SYBR/PI)” value under setting [4] is 68%. Consider `CC(=O)Nc1ccc(/C=N/NC(N)=S)cc1` [Thiacetazone (Amithiozone), Amithiozone], for which the viability at 50 µM under setting [1] is 73%.

`NC1CCN(c2c(F)cc3c(=O)c(C(=O)O)cn(C4CC4)c3c2Cl)C1` (centres unmarked) [Clinafloxacin]: the viability at 50 µM under setting [1] amounted to 60%.

Turning to `O=C(O)CCNC(=O)c1ccccc1` [Betamipron (n-benzoyl-b-alanine), n-benzoyl-b-alanine], the viability at 50 µM under setting [1] is 68%. `CCC[S+]([O-])c1ccc2[nH]c(NC(=O)OC)nc2c1` (centres unmarked) [Ricobendazole (Albendazole oxide), Albendazole oxide]: under setting [3], the viability at 50 µM was 57%. For `CCN(CC)CCOc1ccc2c(c1)C(=O)c1cc(OCCN(CC)CC)ccc1-2` [Tilorone, Tilorone dihydrochloride], the viability at 50 µM under setting [2] was 44% and the viability at 50 µM under setting [1] was found to be 44%. Moreover, the “activity” value (7 days) is given as “good activity”.

For `Nc1cc(C(Cl)=C(Cl)Cl)c(S(N)(=O)=O)cc1S(N)(=O)=O` [Clorsulon], under setting [1], the viability at 50 µM was 71%.

With `Cc1cc(C(C#N)c2ccc(Cl)cc2)c(Cl)cc1NC(=O)c1cc(I)cc(I)c1O` (centres unmarked) [Closantel], under setting [1], the viability at 50 µM turned out to be 56%. In the case of `CS(=O)(=O)c1ccc([C@@H](O)[C@@H](CF)NC(=O)C(Cl)Cl)cc1` [Florfenicol], the viability at 50 µM under setting [1] turned out to be 53%. As for `Cc1ccnc2c1NC(=O)c1cccnc1N2C1CC1` [Nevirapine], the viability at 50 µM under setting [2] is 51% and the viability at 50 µM under setting [1] came out at 51%. The “activity” value (7 days) is “good activity”. On to `O=C(N/N=C/c1ccc([N+](=O)[O-])o1)c1cc([N+](=O)[O-])cc([N+](=O)[O-])c1O` [Nifursol], for which the viability at 50 µM under setting [1] was found to be 51%. Still for that read-out and setting: then `C[C@@H](c1ncncc1F)[C@](O)(Cn1cncn1)c1ccc(F)cc1F` [Voriconazole], with 65%; and `Cc1cn([C@H]2C=C[C@@H](CO)O2)c(=O)[nH]c1=O` [2′,3′-Didehydro-3′-Deoxythymidine], with 65%.

Regarding `CCCCCCCCCCCCCCCCCCCCCCO` [Docosanol], under setting [1], the viability at 50 µM came to 55%. On the same count and under the same terms, then `O=[N+]([O-])c1ccc(O)c2ncccc12` [Nitroxoline (8-hydroxy 5-nitroquinoline), 8-hydroxy 5-nitroquinoline], with 66%; and `COC(=O)N/N=C/c1c[n+]([O-])c2ccccc2[n+]1[O-]` [Carbadox], with 69%. As for `CCN(CC)CCNc1ccc(CO)c2sc3ccccc3c(=O)c12` [Hycanthone], the viability at 50 µM runs as follows: under setting [2], 45%; under setting [1], 45%.

On to `CCOc1ccc2nc3cc(N)ccc3c(N)c2c1` [Ethacridine lactate], for which the viability at 50 µM under setting [2] was found to be 48% and the viability at 50 µM under setting [1] amounted to 48%. For `O=c1[nH]cnc2c1ncn2[C@H]1CC[C@@H](CO)O1` [Didanosine, 2′-3′-dideoxyinosine], the viability at 50 µM reads like this: under setting [2], 61%; under setting [1], 61%.
